Read-outs that look alike come from different tables or passages of the source.

This data set is described as follows: Thermal stability by thermogravimetric (TGA) and thermal differential analysis (TDA). Format: physicochemical. Here is the method:
The thermogravimetric analysis is a method of thermal analysis in which the changes of the physical and chemical properties of the materials are measured as a function of the temperature. The TGA can supply information about the physical phenomena such as the vaporization or the combustion. Also, it is possible to obtain information about the chemical phenomena such as the dehydration or the decomposition. In the thermal differential analysis (TDA) the study material and an inert reference undergo identical thermic cycles. During the analysis the temperature difference between the sample and the reference is recorded. These temperature differences followed as a function of the rime relative to the inert reference inform us about the thermal phenomena undergone by the sample, whether exothermic or endothermic. […] The endothermic character is associated with a change of state of the compound (ex. vaporization) whereas the exothermic character is induced by reactions of decomposition or by intra- and intermolecular chemical reactions. The thermogravimetric analyzer […] of TA INSTRUMENT was used to conjointly determine the vaporization temperatures of the products, the enthalpy values and the rate of products not vaporized at 350° C. The analysis conditions are as follows: test size: 50 mg open crucible under flow of air: 100 ml/min rate of heating: 10° C./min temperature range: 25 to 350° C. (temperature conditions representative of a normal use as well as of misuse of an electronic cigarette). The apparatus is cleaned between each analysis by being heated to 600° C. under a flow of air in order to eliminate any trace of non-vaporized residue deposited on the crucible, the balance arms or the kiln walls.

As to `CN1CCCC1c1cccnc1` (stereo not shown) [Nicotine], the “TDA vaporization temperature (° C.) (1)” value turned out to be 190 °C and the “TGA non-evaporated residue at 250° C. (%)” value worked out at 1.08%.
Take `CC(O)CCO` (stereo not shown) [1,3-butane diol]: the “TDA vaporization temperature (° C.) (1)” value (endothermic peak, 50 mg, air 100 ml/min, 10° C./min, 25 to 350° C.) turned out to be 171 °C. In addition, the “TDA transformation temperature (° C.) (2)” value (exothermic peak (reaction and/or decomposition), 50 mg, air 100 ml/min, 10° C./min) was “without any thermal decomposition”.

The values above are taken from patent publication US20170215470A1, “USE OF A COMPOSITION CONTAINING A LONG-CHAIN POLYOL AS A BASE FOR E-LIQUIDS” (LABORATOIRES CERES, priority 2014, published 2017).
